Values joined by “and” are separate entries in the source; they are usually repeats but may differ in a detail not shown here. Identical values can stand only once.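 How tested: cells in 96-well plates exposed to compound for 48 hours at five concentrations. GI50 is the concentration that inhibits growth by half. TGI: concentration producing complete growth inhibition.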
Legend:
Test in all cases: inhibition of tumour cell growth, NCI panel, 48 h
HCT-116 colon = system: HCT-116 colon
KM20L2 colon = system: KM20L2 colon
SK-MEL-2 melanoma = system: SK-MEL-2 melanoma
HL-60(TB) leukemia = system: HL-60(TB) leukemia
KM12 colon = system: KM12 colon
U251 CNS = system: U251 CNS
M19-MEL melanoma = system: M19-MEL melanoma
CAKI-1 renal = system: CAKI-1 renal
OVCAR-5 ovarian = system: OVCAR-5 ovarian
BT-549 breast = system: BT-549 breast

| SMILES | TGI (HCT-116 colon) [µM] | TGI (KM20L2 colon) [µM] | TGI (SK-MEL-2 melanoma) [µM] | GI50 (HL-60(TB) leukemia) [µM] | TGI (HL-60(TB) leukemia) [µM] | TGI (KM12 colon) [µM] | GI50 (U251 CNS) | TGI (U251 CNS) | GI50 (M19-MEL melanoma) [µM] | TGI (M19-MEL melanoma) [µM] | GI50 (CAKI-1 renal) [µM] | TGI (CAKI-1 renal) | TGI (OVCAR-5 ovarian) [µM] | GI50 (HCT-116 colon) [µM] | GI50 (KM20L2 colon) [µM] | GI50 (SK-MEL-2 melanoma) [µM] | GI50 (KM12 colon) [µM] | GI50 (OVCAR-5 ovarian) [µM] | TGI (BT-549 breast) [µM] |
| --- | --- | --- | --- | --- | --- | --- | --- | --- | --- | --- | --- | --- | --- | --- | --- | --- | --- | --- | --- |
| COc1ccc(C2C(C)C(=O)C(C)C(c3ccc(OC)cc3)N2N=O)cc1 (centres undefined) | 455 | > 1000 | 602 | > 750 | > 1000 | > 1000 | 35 µM and 85.9 µM | 750 µM and 428 µM | > 1000 | > 1000 | 50.1 | 750 µM and 577 µM | > 977 | – | – | – | – | – | – |
| CCNC(=O)O/N=C1\CCC2[C@@H]3CC=C4C[C@@H](OC5CCCCO5)CC[C@]4(C)C3CC[C@]12C (some centres undefined) | > 100 | 12.4 | 5.68 | – | – | 17 | – | 4.29 µM | – | 3.6 | – | 6.19 µM | 13 | – | – | – | – | – | – |
| CC(=O)[CH-]C(=O)c1ccccc1.CC(=O)[CH-]C(=O)c1ccccc1.C[C@]12CCC(=O)C=C1CC[C@@H]1C2CC[C@@]2(C)C1CC[C@@H]2[O-].C[C@]12CCC(=O)C=C1CC[C@@H]1C2CC[C@@]2(C)C1CC[C@@H]2[O-].Cl.[Ti+4] (some centres undefined) | > 100 | 34.1 | 31.4 | 8.82 | 69.1 | 66.2 | – | – | 23.7 | 96.9 | 13.8 | 46.4 µM | 55.8 | 27.6 | 13.1 | 12.7 | 20.3 | 11.8 | – |
| Cc1ccc(S(=O)OCC23CC4CC(CC(C4)C2)C3)cc1 (centres undefined) | > 100 | > 100 | – | – | > 100 | > 100 | – | > 100 µM | – | > 100 | – | > 100 µM | > 100 | – | – | – | – | – | – |
| COc1ccc2nc3cc(Cl)ccc3c(Sc3ccc([N+](=O)[O-])cc3)c2c1 | > 100 | > 100 | > 100 | – | > 100 | > 100 | > 100 µM | > 100 µM | > 100 | > 100 | > 100 | > 100 µM | > 100 | > 100 | > 100 | > 100 | > 100 | > 100 | – |
| CC(=O)NC1C(OCc2ccccc2)OC(COC(=O)CCCCCCCCCCNc2ccc([N+](=O)[O-])c3[nH]c4ccccc4c(=O)c23)C(O)C1OC(C)C(=O)NC(C)C(=O)NC(CCC(N)=O)C(=O)OCc1ccccc1 (centres undefined) | > 100 | > 100 | > 100 | – | > 100 | > 100 | – | > 100 µM | – | > 100 | – | > 100 µM | > 100 | – | – | – | – | – | – |
| CC(=O)OC12COC1CC(O)C1(C)C(=O)C(O)C3=C(C)C(O)CC(O)(C(OC(=O)c4ccccc4)C21)C3(C)C (centres undefined) | > 73.6 | 5.42 | 6.51 | – | 24.3 | > 100 | – | > 74.3 µM | – | > 100 | – | > 100 µM | > 42.2 | – | – | 1.84 | 1.22 | – | > 100 |
| O=C(COC(=O)c1cccc2c(=O)c3ccccc3[nH]c12)Nc1ccc(C(=O)O)cc1 | > 100 | > 100 | – | – | > 100 | > 100 | – | > 100 µM | – | > 100 | – | > 100 µM | – | – | – | – | – | – | – |
| OCc1c[te]c(-c2ccccc2)c1 | 33.3 | > 100 | 85.5 | – | 45.1 | > 100 | – | > 100 µM | – | > 100 | – | > 100 µM | > 100 | – | – | – | – | – | – |
| NN1C(=O)C(CCO)S/C1=N/N=C1/SC(CCO)C(=O)N1N (centres undefined) | > 100 | > 100 | > 100 | – | > 100 | > 100 | – | > 100 µM | – | > 100 | – | > 100 µM | > 100 | – | – | – | – | – | – |
| COC(=O)C(Cc1nc2ccccc2nc1C)/C(=N\NC(N)=O)C(=O)Nc1cccc([N+](=O)[O-])c1 (centres undefined) | > 100 | > 100 | > 100 | – | > 100 | > 100 | – | > 100 µM | – | > 100 | – | > 100 µM | > 100 | – | – | – | – | – | – |
| Cc1ccccc1-n1c2nc(=O)n(C)c(=O)c-2nc2ccccc21 | 28.3 | 21.9 | 32.5 | – | 35.8 | 33.5 | – | 33.2 µM | – | 3.84 | – | 48.9 µM | 34.9 | – | – | – | – | – | – |
| NCCNCc1c2ccccc2c(CNCCN)c2ccccc12 | 48.3 | 74.1 | 29.1 | – | 58.6 | 62.6 | – | 97.7 µM | – | 84.4 | – | – | 97.5 | – | – | – | – | – | – |
| CC1=CC(N2C(=O)C(C)=CC2O)NC1=O (centres undefined) | > 100 | > 100 | > 100 | – | > 100 | > 100 | – | > 100 µM | – | > 100 | – | > 100 µM | > 100 | – | – | – | – | – | – |
| COc1cc2c(cc1OC)C1Cc3cc(OC)c(OC)cc3C(C2)N1C | > 75 | > 100 | > 100 | – | > 75 | > 100 | – | > 100 µM | – | – | – | > 100 µM | > 100 | – | – | – | – | – | > 75 |
| CC(C)NC(=O)CCN(C(=O)O)S(=O)(=O)c1ccc(NC(=O)c2ccccc2)cc1 | > 54.1 | > 100 | > 100 | – | > 64 | > 100 | – | 32.1 µM | – | > 89.2 | – | > 100 µM | > 100 | – | – | – | – | – | – |
| C=C(C(=C)P(=S)(c1ccccc1)c1ccccc1)P(=S)(c1ccccc1)c1ccccc1 | > 100 | > 100 | > 100 | – | > 100 | > 100 | – | > 100 µM | – | > 100 | – | > 100 µM | > 100 | – | – | – | – | – | – |
| OCCN1CCN2C=C(C3CCCC4N(CCO)CCN34)CCC21 (centres undefined) | > 87.2 | > 100 | > 75.6 | – | 24 | > 100 | – | > 100 µM | – | > 100 | – | > 100 µM | > 100 | – | – | – | – | – | – |

Reference: PubChem BioAssay (NCI)
